Laboratory results taken from ChEMBL document CHEMBL1201862, “PubChem BioAssay data set” (2004).
Calls of active or inactive are those of the source.

What was measured:
Mu-type opioid receptor = Mu-type opioid receptor (Homo sapiens, UniProt P35372); assay type: functional, cell-based;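 also: U2OS cells with beta-arrestin recruitment to OPRM1 by beta-gal complementation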
[1] = molecular target: 5-hydroxytryptamine receptor 2A (Mus musculus, UniProt P35363); assay type: functional, cell-based;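 also: CHO-K1 cells with tagged receptor and beta-arrestin; agonist potency measured as compound-induced activation of the receptor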
Chain of 5-hydroxytryptamine receptor 2A (P35363 whole entry): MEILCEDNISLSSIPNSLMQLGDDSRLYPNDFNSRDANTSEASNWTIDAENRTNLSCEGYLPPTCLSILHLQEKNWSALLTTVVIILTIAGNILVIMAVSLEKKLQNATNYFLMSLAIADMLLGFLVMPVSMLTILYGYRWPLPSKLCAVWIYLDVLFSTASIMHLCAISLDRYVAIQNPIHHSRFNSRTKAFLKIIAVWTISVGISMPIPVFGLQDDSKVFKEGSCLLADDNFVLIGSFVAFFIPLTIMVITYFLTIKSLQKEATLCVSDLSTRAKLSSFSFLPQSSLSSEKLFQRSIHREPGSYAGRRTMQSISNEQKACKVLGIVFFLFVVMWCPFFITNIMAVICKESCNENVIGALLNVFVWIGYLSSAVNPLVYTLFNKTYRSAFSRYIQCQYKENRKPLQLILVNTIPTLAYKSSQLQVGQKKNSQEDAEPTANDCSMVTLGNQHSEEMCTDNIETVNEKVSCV

Phospholipase A2 = Phospholipase A2 (Homo sapiens, UniProt P04054); assay type: functional;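 also: confirmatory dose-response counterscreen on phospholipase A2, testing hits that came from an ultra-high-throughput screen for ATG4B inhibitors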
Chain of Phospholipase A2 (P04054 whole entry): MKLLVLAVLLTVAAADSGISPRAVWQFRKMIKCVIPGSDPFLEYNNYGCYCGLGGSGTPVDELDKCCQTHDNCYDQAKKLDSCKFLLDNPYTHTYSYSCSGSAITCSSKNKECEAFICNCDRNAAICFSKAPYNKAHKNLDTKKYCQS

Cysteine protease ATG4B = molecular target: T1, Cysteine protease ATG4B (Homo sapiens, UniProt Q9Y4P1); assay type: functional;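 also: Fluorescence-based dose-response confirmation assay measuring inhibition of ATG4B activity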
T1 sequence (Q9Y4P1 whole entry): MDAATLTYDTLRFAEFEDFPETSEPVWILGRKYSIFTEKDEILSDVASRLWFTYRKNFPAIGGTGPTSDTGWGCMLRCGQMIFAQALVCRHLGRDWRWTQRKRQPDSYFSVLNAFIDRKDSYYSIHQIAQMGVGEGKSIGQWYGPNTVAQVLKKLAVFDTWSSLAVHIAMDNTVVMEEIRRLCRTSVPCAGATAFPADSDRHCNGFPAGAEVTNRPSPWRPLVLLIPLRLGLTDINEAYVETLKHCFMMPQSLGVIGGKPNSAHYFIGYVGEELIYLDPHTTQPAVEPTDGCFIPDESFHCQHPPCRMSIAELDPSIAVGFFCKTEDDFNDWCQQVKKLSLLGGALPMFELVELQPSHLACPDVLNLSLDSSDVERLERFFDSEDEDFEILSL

[2] = off-target signal loss in HeLa-CEM21 co-culture – HeLa F-luc CTL cells, cherry-picked, counter-screen for HIV-1 Env fusion inhibitor project, dose response (AID 652040); assay type: functional, cell-based;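 also: potency for signal decrease marking cytotoxic or nonspecific inhibition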
[3] = Luminescence Cell-Based Dose Retest to Confirm Inhibitors of Cancer Stem Cells. [Related pubchem assays (depositor defined):AID2717, AID2721]; assay type: functional; conditions: Homo sapiens
[4] = CEM21 lymphoblast cell cytotoxicity, dose response, cytotoxicity control for viral fusion inhibitor project, CellTiter-Glo luminescence, cherry-picked (AID 652042); assay type: functional, cell-based;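 also: potency for signal decrease meaning cytotoxicity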
[5] = inhibitors of clade B AD8 Env fusion, dose response, cell-based, cherry-pick (AID 652062); assay type: functional;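 also: luciferase signal from cell-cell fusion driven by HIV-1 clade B AD8 Env; potency is for inhibitors of fusion seen as a drop in luminescence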
[6] = inhibitors of HIV Env-driven cell fusion, dose response, cherry-pick (AID 652057); assay type: functional, cell-based
[7] = molecular target: T2, Nuclear receptor subfamily 0 group B member 1 (Homo sapiens, UniProt P51843); assay type: functional, cell-based;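 also: HEK293T cells transfected with SF-1 and DAX-1 plus StAR promoter luciferase reporter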
T2 sequence (P51843 whole entry): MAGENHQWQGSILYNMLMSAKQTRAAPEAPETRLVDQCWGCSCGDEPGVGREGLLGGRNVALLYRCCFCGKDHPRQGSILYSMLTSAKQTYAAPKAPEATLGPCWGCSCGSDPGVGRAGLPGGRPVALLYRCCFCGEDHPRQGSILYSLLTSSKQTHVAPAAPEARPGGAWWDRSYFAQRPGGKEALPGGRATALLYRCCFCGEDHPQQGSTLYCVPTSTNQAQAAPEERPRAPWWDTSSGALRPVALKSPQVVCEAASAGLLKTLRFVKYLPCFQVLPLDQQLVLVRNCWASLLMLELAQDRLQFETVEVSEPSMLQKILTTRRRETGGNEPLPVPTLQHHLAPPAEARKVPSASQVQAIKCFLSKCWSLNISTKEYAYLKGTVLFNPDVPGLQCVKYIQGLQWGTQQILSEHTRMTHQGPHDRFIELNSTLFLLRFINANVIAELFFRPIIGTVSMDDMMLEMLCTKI

[8] = MC4R antagonists, dose response, counter-screen for LGR2 antagonist project, cell-based, plate reader, cherry pick (AID 743444); assay type: functional;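 also: transfected HEK 293 cells stimulated with alpha-MSH peptide; potency of inhibitors of the alpha-MSH evoked signal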
[9] = LGR2 antagonists, dose response, cell-based, HEK293, CRE-luciferase reporter, cherry pick, set 2 (AID 743343); assay type: functional;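 also: transfected cells were stimulated with diluted bursicon conditioned medium after compound addition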
HEK293 = assay: inhibitors of LMP1-driven NF-kB reporter, dose response, cell-based, HEK293, luciferase, cherry-pick (AID 588343); assay type: functional; conditions: Homo sapiens
cells [10] = assay type: functional, cell-based
[11] = Luminescence Cell-Based Dose Response HTS to Identify Inhibitors of 5'UTR Stem-Loop Driven Prion Protein mRNA Translation in H4 Neuroglioblastoma Cells. [Related pubchem assays: 1827 (Project Summary), 1813 (Primary HTS)]; assay type: functional
[12] = inhibitors of SNCA 5'UTR-driven reporter translation, confirmation, H4 neuroglioma cells, luminescence (AID 1988); assay type: functional, cell-based
[13] = inhibitors of firefly luciferase expression or activity, dose response, H4 neuroglioma cells, luminescence (AID 1990); assay type: functional, cell-based
[14] = ZM109 Env clade C HIV-1 fusion inhibitors, dose response, HeLa effector, CEM target cells, luciferase, cherry-pick (AID 652058); assay type: functional, cell-based
[15] = inhibitors of intracellular T. cruzi replication, confirmation, NIH3T3 host cells, beta-gal luminescence (AID 2044); assay type: functional, cell-based;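 also: intracellular parasites grown in NIH/3T3 mouse fibroblasts as host cells; luminescent beta-galactosidase reporter signal from transgenic T. cruzi replicating inside host cells; inhibitors lower the luminescence signal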
Beta-galactosidase = Beta-galactosidase (Escherichia coli, UniProt Q8VNN2); assay: Dose response counterscreen for EBI2 assay utilizing the enzyme, b-galactosidase.; assay type: functional
Chain of Beta-galactosidase (Q8VNN2 whole entry): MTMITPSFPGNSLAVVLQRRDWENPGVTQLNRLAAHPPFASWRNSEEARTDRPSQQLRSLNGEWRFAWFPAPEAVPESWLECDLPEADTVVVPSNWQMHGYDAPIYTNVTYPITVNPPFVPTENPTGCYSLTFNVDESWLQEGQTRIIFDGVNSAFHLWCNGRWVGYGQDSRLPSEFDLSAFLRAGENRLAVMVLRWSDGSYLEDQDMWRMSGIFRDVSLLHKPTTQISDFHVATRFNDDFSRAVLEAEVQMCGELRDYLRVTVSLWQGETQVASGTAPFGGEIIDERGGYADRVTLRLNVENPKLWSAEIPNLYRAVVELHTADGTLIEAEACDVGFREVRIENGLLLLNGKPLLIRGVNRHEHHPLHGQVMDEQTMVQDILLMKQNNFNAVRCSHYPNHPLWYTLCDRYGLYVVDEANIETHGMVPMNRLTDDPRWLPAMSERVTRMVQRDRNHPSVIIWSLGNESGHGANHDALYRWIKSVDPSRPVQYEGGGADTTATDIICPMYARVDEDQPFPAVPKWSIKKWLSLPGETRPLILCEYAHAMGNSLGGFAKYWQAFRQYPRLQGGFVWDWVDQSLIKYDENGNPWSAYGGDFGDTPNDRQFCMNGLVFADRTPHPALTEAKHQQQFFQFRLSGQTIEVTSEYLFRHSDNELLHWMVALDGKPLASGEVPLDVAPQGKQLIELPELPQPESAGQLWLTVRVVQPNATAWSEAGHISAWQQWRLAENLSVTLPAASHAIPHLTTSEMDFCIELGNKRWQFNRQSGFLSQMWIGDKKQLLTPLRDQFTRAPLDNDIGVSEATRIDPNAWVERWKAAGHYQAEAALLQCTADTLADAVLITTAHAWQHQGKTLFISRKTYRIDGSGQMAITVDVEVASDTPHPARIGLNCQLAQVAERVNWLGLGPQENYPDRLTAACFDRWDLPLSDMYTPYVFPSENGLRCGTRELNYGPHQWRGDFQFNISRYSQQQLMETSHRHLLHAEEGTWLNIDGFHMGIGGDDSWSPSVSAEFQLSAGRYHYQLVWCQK

[16] = cytotoxicity toward NIH3T3 fibroblasts, dose response, counter-screen, cell-based, ATP luminescence, mouse fibroblasts (AID 2010); assay type: functional;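 also: cells exposed to compound for about 90 hours before reading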
Beta-lactamase [17] = molecular target: T3, Beta-lactamase (Pseudomonas aeruginosa, UniProt Q79MP6); assay: […] counterscreen for selective VIM-2 inhibitors: dose response biochemical high throughput screening assay to identify inhibitors of IMP-1 metallo-beta-lactamase.
T3 sequence (Q79MP6 whole entry): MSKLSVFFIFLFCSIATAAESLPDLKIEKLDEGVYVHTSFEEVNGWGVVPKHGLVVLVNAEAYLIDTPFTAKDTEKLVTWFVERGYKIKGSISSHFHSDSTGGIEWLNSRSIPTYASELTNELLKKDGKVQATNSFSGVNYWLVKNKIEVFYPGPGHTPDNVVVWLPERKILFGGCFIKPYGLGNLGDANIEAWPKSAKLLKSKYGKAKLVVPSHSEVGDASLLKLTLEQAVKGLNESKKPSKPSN

Beta-lactamase [18] = molecular target: T3, Beta-lactamase; assay: IMP-1 metallo-beta-lactamase inhibitors, dose response, selectivity assay for VIM-2 inhibitor project, biochemical, epi-absorbance (AID 1920)
Beta-lactamase [19] = molecular target: Beta-lactamase (Salmonella choleraesuis (strain SC-B67), UniProt Q5J463); assay: Epi-absorbance-based counterscreen for selective VIM-2 inhibitors: dose response biochemical high throughput screening assay to identify inhibitors of TEM-1 serine-beta-lactamase.
Chain of Beta-lactamase (Salmonella choleraesuis (strain SC-B67), UniProt Q5J463) (Q5J463 whole entry): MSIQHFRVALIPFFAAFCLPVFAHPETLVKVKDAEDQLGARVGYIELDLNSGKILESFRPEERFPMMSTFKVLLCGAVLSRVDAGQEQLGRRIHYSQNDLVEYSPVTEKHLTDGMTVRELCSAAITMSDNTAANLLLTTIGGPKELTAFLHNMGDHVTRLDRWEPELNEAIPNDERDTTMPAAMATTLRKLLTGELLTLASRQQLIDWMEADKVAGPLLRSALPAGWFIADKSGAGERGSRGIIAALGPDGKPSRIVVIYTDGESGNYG

[20] = molecular target: T4, Sentrin-specific protease 8 (Homo sapiens, UniProt Q96LD8); assay type: functional
T4 sequence (Q96LD8 whole entry): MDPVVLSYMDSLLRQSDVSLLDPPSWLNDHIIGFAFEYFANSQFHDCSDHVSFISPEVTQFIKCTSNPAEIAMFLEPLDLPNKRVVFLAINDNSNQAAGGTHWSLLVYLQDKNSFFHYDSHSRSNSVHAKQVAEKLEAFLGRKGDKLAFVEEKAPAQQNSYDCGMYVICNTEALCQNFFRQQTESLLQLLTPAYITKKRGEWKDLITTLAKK

[21] = molecular target: T4, Sentrin-specific protease 8; assay type: functional; remark: listed apart in the source
[22] = molecular target: T5, Histone-lysine N-methyltransferase NSD2 (Homo sapiens, UniProt O96028); assay type: biochemical
T5 sequence (O96028 whole entry): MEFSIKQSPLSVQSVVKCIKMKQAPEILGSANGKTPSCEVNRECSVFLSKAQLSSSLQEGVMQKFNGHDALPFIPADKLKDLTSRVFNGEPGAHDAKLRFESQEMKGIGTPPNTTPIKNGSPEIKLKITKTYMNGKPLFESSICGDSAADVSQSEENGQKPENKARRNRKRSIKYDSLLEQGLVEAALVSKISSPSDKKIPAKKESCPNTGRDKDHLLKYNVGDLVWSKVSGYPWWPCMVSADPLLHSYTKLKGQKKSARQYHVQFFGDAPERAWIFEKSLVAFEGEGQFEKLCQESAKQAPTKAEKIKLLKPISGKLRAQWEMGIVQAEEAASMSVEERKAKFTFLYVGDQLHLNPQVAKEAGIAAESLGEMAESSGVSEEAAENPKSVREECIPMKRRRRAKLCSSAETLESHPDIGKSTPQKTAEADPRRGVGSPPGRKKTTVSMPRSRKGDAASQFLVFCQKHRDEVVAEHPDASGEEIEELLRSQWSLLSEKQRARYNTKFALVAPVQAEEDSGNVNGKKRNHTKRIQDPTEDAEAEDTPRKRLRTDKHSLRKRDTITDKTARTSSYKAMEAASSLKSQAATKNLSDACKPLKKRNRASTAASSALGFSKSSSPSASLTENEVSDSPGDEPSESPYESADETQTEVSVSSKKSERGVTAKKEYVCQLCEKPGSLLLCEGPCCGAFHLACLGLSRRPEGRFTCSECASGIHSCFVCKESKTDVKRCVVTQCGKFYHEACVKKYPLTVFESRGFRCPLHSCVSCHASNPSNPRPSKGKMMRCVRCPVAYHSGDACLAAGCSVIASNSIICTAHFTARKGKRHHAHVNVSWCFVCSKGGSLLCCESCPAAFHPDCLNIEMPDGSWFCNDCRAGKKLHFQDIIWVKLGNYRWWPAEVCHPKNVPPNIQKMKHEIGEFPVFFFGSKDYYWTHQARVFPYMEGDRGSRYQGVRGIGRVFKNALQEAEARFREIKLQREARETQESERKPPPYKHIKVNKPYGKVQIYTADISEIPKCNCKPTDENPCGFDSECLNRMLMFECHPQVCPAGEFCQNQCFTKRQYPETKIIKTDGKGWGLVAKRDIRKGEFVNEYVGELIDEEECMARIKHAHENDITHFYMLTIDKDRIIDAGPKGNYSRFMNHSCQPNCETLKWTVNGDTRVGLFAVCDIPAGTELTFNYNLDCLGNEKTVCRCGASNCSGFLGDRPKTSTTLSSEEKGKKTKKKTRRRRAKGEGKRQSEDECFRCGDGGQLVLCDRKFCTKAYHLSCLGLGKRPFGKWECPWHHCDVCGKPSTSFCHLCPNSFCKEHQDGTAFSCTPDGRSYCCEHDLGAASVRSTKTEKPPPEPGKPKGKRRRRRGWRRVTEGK

cells [23] = assay type: functional, cell-based; remark: listed apart in the source
cells [24] = assay type: functional, cell-based; remark: listed apart in the source
[25] = molecular target: DNA repair and recombination protein RAD54-like (Homo sapiens, UniProt Q92698); assay: inhibitors of human RAD54 branch migration, confirmation, biochemical, fluorescence, cherry-picked samples, dose series (AID 651657); assay type: functional
Chain of DNA repair and recombination protein RAD54-like (Q92698 whole entry): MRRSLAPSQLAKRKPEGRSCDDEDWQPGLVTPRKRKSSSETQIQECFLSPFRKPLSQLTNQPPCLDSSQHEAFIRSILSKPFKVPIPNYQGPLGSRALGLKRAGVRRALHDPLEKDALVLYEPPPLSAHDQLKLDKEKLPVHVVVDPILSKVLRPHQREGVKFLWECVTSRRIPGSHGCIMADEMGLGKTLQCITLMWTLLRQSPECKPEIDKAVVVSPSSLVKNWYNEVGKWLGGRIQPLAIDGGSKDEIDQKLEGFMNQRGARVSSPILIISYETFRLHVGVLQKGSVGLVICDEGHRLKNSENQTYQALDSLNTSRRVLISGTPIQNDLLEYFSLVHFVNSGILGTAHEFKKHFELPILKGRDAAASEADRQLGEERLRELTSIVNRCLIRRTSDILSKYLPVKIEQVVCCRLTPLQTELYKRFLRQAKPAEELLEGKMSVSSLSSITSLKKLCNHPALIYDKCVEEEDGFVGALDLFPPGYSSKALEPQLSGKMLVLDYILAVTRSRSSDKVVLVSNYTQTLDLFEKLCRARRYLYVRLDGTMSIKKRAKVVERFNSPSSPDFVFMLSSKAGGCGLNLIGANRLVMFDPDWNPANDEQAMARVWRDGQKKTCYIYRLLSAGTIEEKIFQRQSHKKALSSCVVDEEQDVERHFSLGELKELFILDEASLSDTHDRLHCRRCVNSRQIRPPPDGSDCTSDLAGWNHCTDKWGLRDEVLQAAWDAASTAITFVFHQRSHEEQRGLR

INS1 = assay: beta cell apoptosis inhibitors, cytokine rescue, dose response, luminescence, retest (AID 449756); assay type: functional, cell-based; conditions: Rattus norvegicus;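 also: cell death triggered by IL-1 beta plus TNF-alpha plus IFN-gamma mixture; protective hits raise ATP signal compared with cytokine alone wells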
Cytochrome P450 1A2 = molecular target: T6, Cytochrome P450 1A2 (Homo sapiens, UniProt P05177);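 also: PubChem cytochrome P450 panel assay, CYP1A2 panel member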
T6 sequence (P05177 whole entry): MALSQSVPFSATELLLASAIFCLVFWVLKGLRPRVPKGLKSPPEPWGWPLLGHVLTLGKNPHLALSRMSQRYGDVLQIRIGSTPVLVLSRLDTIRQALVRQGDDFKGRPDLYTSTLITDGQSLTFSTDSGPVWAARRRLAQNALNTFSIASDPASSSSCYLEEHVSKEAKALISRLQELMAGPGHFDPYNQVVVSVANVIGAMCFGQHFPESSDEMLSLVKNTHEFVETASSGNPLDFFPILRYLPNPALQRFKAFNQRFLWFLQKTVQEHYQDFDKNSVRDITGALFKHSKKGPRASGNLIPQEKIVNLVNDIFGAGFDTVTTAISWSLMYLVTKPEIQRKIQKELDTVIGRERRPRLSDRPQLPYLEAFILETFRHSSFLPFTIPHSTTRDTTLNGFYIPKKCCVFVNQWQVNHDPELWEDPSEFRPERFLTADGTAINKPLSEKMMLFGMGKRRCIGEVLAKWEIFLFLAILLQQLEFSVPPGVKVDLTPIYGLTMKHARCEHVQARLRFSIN

Cytochrome P450 2C9 = Cytochrome P450 2C9 (Homo sapiens, UniProt P11712)
Chain of Cytochrome P450 2C9 (P11712 whole entry): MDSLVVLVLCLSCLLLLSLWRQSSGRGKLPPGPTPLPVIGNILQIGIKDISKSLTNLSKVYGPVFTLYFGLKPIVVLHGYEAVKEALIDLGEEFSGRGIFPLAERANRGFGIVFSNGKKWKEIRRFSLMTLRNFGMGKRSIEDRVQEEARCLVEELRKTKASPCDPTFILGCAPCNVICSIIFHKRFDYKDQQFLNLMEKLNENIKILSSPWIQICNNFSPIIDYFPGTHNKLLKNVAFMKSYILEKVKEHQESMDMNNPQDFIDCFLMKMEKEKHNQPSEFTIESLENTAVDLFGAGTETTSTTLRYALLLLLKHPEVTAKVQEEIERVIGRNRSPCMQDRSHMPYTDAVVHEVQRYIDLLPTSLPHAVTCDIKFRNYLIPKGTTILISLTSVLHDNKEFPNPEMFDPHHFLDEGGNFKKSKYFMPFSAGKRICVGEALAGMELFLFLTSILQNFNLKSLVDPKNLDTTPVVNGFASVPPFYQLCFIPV

Chain of Mu-type opioid receptor (P35372 whole entry): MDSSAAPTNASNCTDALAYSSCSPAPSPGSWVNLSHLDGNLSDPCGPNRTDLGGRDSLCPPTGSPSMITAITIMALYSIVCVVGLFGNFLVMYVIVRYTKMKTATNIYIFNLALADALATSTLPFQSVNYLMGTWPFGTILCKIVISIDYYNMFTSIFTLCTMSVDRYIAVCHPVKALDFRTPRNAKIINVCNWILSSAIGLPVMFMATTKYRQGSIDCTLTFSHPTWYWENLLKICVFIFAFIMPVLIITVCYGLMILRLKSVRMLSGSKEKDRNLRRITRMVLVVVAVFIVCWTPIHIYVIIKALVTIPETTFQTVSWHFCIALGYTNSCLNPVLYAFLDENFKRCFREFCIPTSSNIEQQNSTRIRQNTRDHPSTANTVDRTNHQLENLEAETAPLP

CCCN1CCO[C@@H]2c3cc(O)ccc3OC[C@H]21
EC50 (Mu-type opioid receptor): 92.5 µM (inactive)
EC50 [1]: 0.0216 µM (active)

CCC(=O)NC(=S)Nc1cccc(Cl)c1N1CCCCC1
IC50 (Phospholipase A2): 3.78 µM (active)
IC50 (Cysteine protease ATG4B): 6.09 µM (active)
AC50 [2]: > 70 µM (inactive)
AC50 [3]: 5.27 µM (active)
AC50 [4]: 36.5 µM (active)
AC50 [5]: 38.5 µM (active)
AC50 [6]: 17.3 µM (active)

COC(=O)c1ccc2nc(-c3cccc(N)c3)cn2c1
IC50 [7]: > 0.834 µM (active)
AC50 [8]: 2.62 µM (active)
AC50 [9]: 3.22 µM (active)
AC50 (HEK293): 2.21 µM (active)
IC50 (cells [10]): > 67.5 µM (inactive)
EC50 [11]: > 60 µM (not active)
EC50 [12]: 6.89 µM (active)
EC50 [13]: > 60 µM (not active)

COc1ccc(C2c3c(-c4ccccc4O)n[nH]c3C(=O)N2CCc2ccc(OC)c(OC)c2)cc1 (stereo not drawn)
AC50 [2]: 3.07 µM (active)
AC50 [14]: 2.44 µM (active)
AC50 [4]: 65.5 µM (active)
AC50 [5]: 1.17 µM (active)
AC50 [6]: 1.94 µM (active)

O=C(c1ccc2ccccc2c1)N1CCN(S(=O)(=O)/C=C/c2ccccc2)CC1
EC50 [15]: 1.1 µM (active)
IC50 (Beta-galactosidase): > 80 µM (inactive)
EC50 [16]: > 30 µM (not active)

O=C(c1cc2ccccc2o1)N1CCN(S(=O)(=O)/C=C/c2ccccc2)CC1
IC50 (Beta-galactosidase): > 80 µM (inactive)

O=C(CSc1nnc(NC(=O)c2cc(Br)ccc2Cl)s1)NCC1CCCO1 (stereo not drawn)
IC50 (Beta-lactamase [17]): > 59.6 µM (inactive)
IC50 (Beta-lactamase [18]): > 59.6 µM (inactive)
IC50 (Beta-lactamase [19]): > 59.6 µM (inactive)

Cc1n[nH]c(O)c1C(c1ccc(-c2ccc(Cl)cc2)o1)c1c(C)n[nH]c1O
IC50 [20]: 36.3 µM (active)
IC50 [21]: 12.9 µM (active)
AC50 [22]: 8.22 µM (active)

CCCN1CN(CCc2ccccc2)CN=C1S
IC50 (cells [23]): > 29.9 µM (inactive)
EC50 (cells [24]): > 29.9 µM (inactive)

NNC(=O)c1oc2nc(-c3cccs3)cc(-c3ccco3)c2c1N
AC50 [25]: 16.6 µM (active)

c1cnc(N2CCN(Cc3c[nH]c4ccccc34)CC2)nc1
AC50 (INS1): 4.57 µM (active)
EC50 (Mu-type opioid receptor): 92.5 µM (inactive)
EC50 [1]: 0.424 µM (active)

CCOC(=O)c1[nH]c(C(=O)O)c(CCC(=O)OC)c1C
IC50 (Beta-lactamase [17]): 29.4 µM (inactive)
IC50 (Beta-lactamase [18]): > 59.6 µM (inactive)
IC50 (Beta-lactamase [19]): > 59.6 µM (inactive)
AC50 (Cytochrome P450 1A2): 0.251 µM (inconclusive)
AC50 (Cytochrome P450 2C9): 31.6 µM (inconclusive)
